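Grown in 96-well plates, cells were treated for 48 hours with each compound at five concentrations. Insufficient inhibition: endpoint recorded as highest concentration tested. The concentration for 50% growth inhibition is given as GI50.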 Active and inactive are the calls of the source. No stated cut-off is given here; in the data, active = GI50 up to about 1.1 µM and inactive = higher.
Experiments:
Test in all cases: NCI anticancer screen, dose series, 48 h
OVCAR-8 = system: OVCAR-8
K562 = system: K562
CAKI-1 = system: CAKI-1
COLO 205 = system: COLO 205
NCI-H522 = system: NCI-H522
A549 = system: A549
SK-MEL-2 = system: SK-MEL-2
OVCAR-3 = system: OVCAR-3
OVCAR-5 = system: OVCAR-5
NCI-H23 = system: NCI-H23
UACC-257 = system: UACC-257
HL-60 = system: HL-60
UO-31 = system: UO-31
CCRF-CEM = system: CCRF-CEM
RPMI-8226 = system: RPMI-8226
RXF 393 = system: RXF 393
HOP-92 = system: HOP-92
Hs-578T = system: Hs-578T
SNB-75 = system: SNB-75

SMILES	GI50 (OVCAR-8)	GI50 (K562)	GI50 (CAKI-1)	GI50 (COLO 205)	GI50 (NCI-H522)	GI50 (A549)	GI50 (SK-MEL-2)	GI50 (OVCAR-3)	GI50 (OVCAR-5)	GI50 (NCI-H23)	GI50 (UACC-257)	GI50 (HL-60)	GI50 (UO-31)	GI50 (CCRF-CEM)	GI50 (RPMI-8226)	GI50 (RXF 393)	GI50 (HOP-92)	GI50 (Hs-578T)	GI50 (SNB-75)
O=C1OCC2=C1C(c1ccc3c(c1)OCO3)c1cc3c(cc1O2)OCO3 (centres undefined)	1.11 µM (active)	0.269 µM (active)	0.807 µM (active)	0.44 µM (active)	0.262 µM (active)	0.897 µM (active)	0.375 µM (active)	2.72 µM (inactive)	7.48 µM (inactive)	1.29 µM (inactive)	5.13 µM (inactive)	0.134 µM (active)	1.59 µM (inactive)	0.667 µM (active)	0.378 µM (active)	0.828 µM (active)	14.4 µM (inactive)	0.865 µM (active)	0.5 µM (active)
Cc1ccc(C)c(N2C(=O)C(=O)C(c3nc4ccccc4o3)/C(=N/N)C2=O)c1 (centres undefined)	> 100 µM (inactive)		> 100 µM (inactive)	> 100 µM (inactive)	> 100 µM (inactive)	> 100 µM (inactive)	> 100 µM (inactive)	> 100 µM (inactive)		> 100 µM (inactive)	> 100 µM (inactive)	> 100 µM (inactive)	> 100 µM (inactive)	> 100 µM (inactive)		> 100 µM (inactive)	> 100 µM (inactive)		95.7 µM (inactive)
COc1ccc(C(=O)C(c2ccc(OC)cc2)C2(O)C(=O)Nc3c(Cl)cc(Cl)cc32)cc1 (centres undefined)	23.7 µM (inactive)	16.6 µM (inactive)	19.1 µM (inactive)	29.4 µM (inactive)	18.2 µM (inactive)	24.2 µM (inactive)	14.1 µM (inactive)	22.8 µM (inactive)	20.1 µM (inactive)	19.5 µM (inactive)	17.3 µM (inactive)	4.68 µM (inactive)	27.7 µM (inactive)	15.6 µM (inactive)	11.9 µM (inactive)	22.3 µM (inactive)	15.3 µM (inactive)		22.9 µM (inactive)
C/C(=C/CNc1ncnc2c1ncn2CCC(=O)O)CO	> 100 µM (inactive)	> 100 µM (inactive)	> 100 µM (inactive)	> 100 µM (inactive)	> 100 µM (inactive)	> 100 µM (inactive)		> 100 µM (inactive)	> 100 µM (inactive)	> 100 µM (inactive)	> 100 µM (inactive)	> 100 µM (inactive)	> 100 µM (inactive)	> 100 µM (inactive)	> 100 µM (inactive)	> 100 µM (inactive)	> 100 µM (inactive)	> 100 µM (inactive)	> 100 µM (inactive)
CC1NOC(=O)C1/N=N/c1cccc(Cl)c1 (centres undefined)	44.8 µM (inactive)	25.6 µM (inactive)	38.6 µM (inactive)	20.5 µM (inactive)	23.5 µM (inactive)	33.2 µM (inactive)	16.5 µM (inactive)	22.5 µM (inactive)	47.5 µM (inactive)	99.5 µM (inactive)	29 µM (inactive)	18.4 µM (inactive)	35.6 µM (inactive)	21.4 µM (inactive)		22.8 µM (inactive)	26.4 µM (inactive)		36.1 µM (inactive)
NS(=O)(=O)c1cc2c(cc1Cl)NC(C(=O)c1cc(=O)c3ccc(O)cc3o1)=NS2(=O)=O	> 100 µM (inactive)	> 100 µM (inactive)	> 100 µM (inactive)	> 100 µM (inactive)	> 100 µM (inactive)	> 100 µM (inactive)	> 100 µM (inactive)	> 100 µM (inactive)	> 100 µM (inactive)	> 100 µM (inactive)	> 100 µM (inactive)	> 100 µM (inactive)	> 100 µM (inactive)	> 100 µM (inactive)	> 100 µM (inactive)	> 100 µM (inactive)	> 100 µM (inactive)		97.7 µM (inactive)
OC(c1ccccn1)C1CNc2ccccc21 (centres undefined)	> 100 µM (inactive)	> 100 µM (inactive)	> 100 µM (inactive)	> 100 µM (inactive)	> 100 µM (inactive)	> 100 µM (inactive)	> 100 µM (inactive)	> 100 µM (inactive)	> 100 µM (inactive)	> 100 µM (inactive)	> 100 µM (inactive)	> 100 µM (inactive)	> 100 µM (inactive)	> 100 µM (inactive)	> 100 µM (inactive)	> 100 µM (inactive)	> 100 µM (inactive)		22.1 µM (inactive)
CC(Oc1cc2oc(=O)cc(-c3ccccc3)c2cc1Cl)C(=O)O (centres undefined)	> 100 µM (inactive)	> 100 µM (inactive)	> 100 µM (inactive)	> 100 µM (inactive)	> 100 µM (inactive)	> 100 µM (inactive)		> 100 µM (inactive)		> 100 µM (inactive)	> 100 µM (inactive)	> 100 µM (inactive)	> 100 µM (inactive)	> 100 µM (inactive)		> 100 µM (inactive)	> 100 µM (inactive)		> 100 µM (inactive)
COc1ccc(C(=O)/C=C/c2ccc(OCCCCCCCCCCOc3ccc(/C=C/C(=O)c4ccc(OC)c(OC)c4)cc3)cc2)c(OC)c1	> 100 µM (inactive)	> 100 µM (inactive)	> 100 µM (inactive)	> 100 µM (inactive)		> 100 µM (inactive)	> 100 µM (inactive)		> 100 µM (inactive)		> 100 µM (inactive)	> 100 µM (inactive)	> 100 µM (inactive)	> 100 µM (inactive)	> 100 µM (inactive)	> 100 µM (inactive)		76 µM (inactive)	> 100 µM (inactive)
CC1=C(C(=O)Nc2ccccc2)C(c2ccc([N+](=O)[O-])cc2)C(C(=O)Nc2ccccc2)=C(C)N1	17.3 µM (inactive)	15.4 µM (inactive)			18.3 µM (inactive)	34 µM (inactive)	14.7 µM (inactive)	21.7 µM (inactive)	40.9 µM (inactive)	17 µM (inactive)	18.5 µM (inactive)	13.1 µM (inactive)	22.4 µM (inactive)	10.3 µM (inactive)	15.2 µM (inactive)	17.6 µM (inactive)	17.9 µM (inactive)		26.6 µM (inactive)
O=C1OC(CC(=O)c2ccccc2Cl)C(Cl)=C1Cl (centres undefined)	> 100 µM (inactive)	> 100 µM (inactive)	> 100 µM (inactive)	> 100 µM (inactive)	> 100 µM (inactive)	> 100 µM (inactive)	> 100 µM (inactive)	> 100 µM (inactive)	> 100 µM (inactive)	> 100 µM (inactive)	> 100 µM (inactive)	> 100 µM (inactive)	> 100 µM (inactive)	48.3 µM (inactive)	> 100 µM (inactive)	> 100 µM (inactive)	> 100 µM (inactive)		
COC1OC(C)C(OC(=O)C(C)(C)C)C(C)(O)C1O (centres undefined)	> 100 µM (inactive)	> 100 µM (inactive)	> 100 µM (inactive)	> 100 µM (inactive)	> 100 µM (inactive)	> 100 µM (inactive)		> 100 µM (inactive)	> 100 µM (inactive)	> 100 µM (inactive)	> 100 µM (inactive)	> 100 µM (inactive)		> 100 µM (inactive)	> 100 µM (inactive)	> 100 µM (inactive)	> 100 µM (inactive)		
CCN(CC)CC(C(=O)Nc1c(C)cccc1C)/C(C)=N/NC(N)=S (centres undefined)	> 100 µM (inactive)	> 100 µM (inactive)		> 100 µM (inactive)	> 100 µM (inactive)	> 100 µM (inactive)	> 100 µM (inactive)	> 100 µM (inactive)	> 100 µM (inactive)	> 100 µM (inactive)	> 100 µM (inactive)	> 100 µM (inactive)	> 100 µM (inactive)	> 100 µM (inactive)	> 100 µM (inactive)	> 100 µM (inactive)	> 100 µM (inactive)		> 100 µM (inactive)
Cc1nc2c(n1CC(C)C)C(=O)c1ccccc1C2=O	35.5 µM (inactive)	29.9 µM (inactive)		36 µM (inactive)	26.5 µM (inactive)	32.9 µM (inactive)	25.5 µM (inactive)	25.4 µM (inactive)		18 µM (inactive)	17.7 µM (inactive)	23 µM (inactive)	26.5 µM (inactive)	38.2 µM (inactive)		35.2 µM (inactive)	10.4 µM (inactive)		42.8 µM (inactive)
CCOC(=O)c1sc2c(c1OC(=O)c1cccs1)c(=O)n(-c1ccccc1)c(=S)n2-c1ccccc1	18.2 µM (inactive)	19.9 µM (inactive)	33.1 µM (inactive)	17.3 µM (inactive)	4.69 µM (inactive)	12.3 µM (inactive)		24.7 µM (inactive)	22.6 µM (inactive)	15.8 µM (inactive)	27.4 µM (inactive)	15.5 µM (inactive)	0.175 µM (active)	5.15 µM (inactive)	7.55 µM (inactive)	24.3 µM (inactive)	24.5 µM (inactive)	23.7 µM (inactive)	83.6 µM (inactive)
COc1ccc(NS(=O)(=O)c2ccc(/N=C3\C=C(Nc4ccc(S(=O)(=O)Nc5ccc(OC)nn5)cc4)C(=O)c4ccccc43)cc2)nn1	17.2 µM (inactive)	61.1 µM (inactive)	22 µM (inactive)	17.7 µM (inactive)	17 µM (inactive)	17.9 µM (inactive)	16.9 µM (inactive)	21 µM (inactive)	19.1 µM (inactive)	16.2 µM (inactive)	16.9 µM (inactive)	> 100 µM (inactive)	19.7 µM (inactive)	> 100 µM (inactive)	53.7 µM (inactive)	18.4 µM (inactive)	31 µM (inactive)		19.8 µM (inactive)
